Experimental data: patent US9856268B2, “Lactam kinase inhibitors” (G1 Therapeutics, Inc., priority 2012, dated 2018)

The compounds below were run against T1, Aurora -A (Homo sapiens, UniProt O14965) (assay: Kinase electrophoretic mobility shift assay, Aurora -A). Conditions: compounds tested at 10 μM, average of n = 2, ATP at apparent Km; read-out: Aurora -A activity (percent inhibition).
T1 sequence (O14965 1-403): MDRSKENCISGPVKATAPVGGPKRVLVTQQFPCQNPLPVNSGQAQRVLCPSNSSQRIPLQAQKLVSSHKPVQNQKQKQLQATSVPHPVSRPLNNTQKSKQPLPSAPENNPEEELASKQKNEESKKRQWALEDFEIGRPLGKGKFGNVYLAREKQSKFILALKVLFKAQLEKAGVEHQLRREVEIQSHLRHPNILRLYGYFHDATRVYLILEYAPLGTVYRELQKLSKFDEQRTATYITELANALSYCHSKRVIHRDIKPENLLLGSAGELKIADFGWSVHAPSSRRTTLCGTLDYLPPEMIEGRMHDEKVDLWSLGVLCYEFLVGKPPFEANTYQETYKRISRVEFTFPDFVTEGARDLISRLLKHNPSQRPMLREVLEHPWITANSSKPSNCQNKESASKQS
Assay type: biochemical
Experimental: (§1) Kinase activity is measured in vitro using electrophoretic mobility shift assay. The kinase reactions are assembled in 384 well plates in total volume of 25 μL. The reactions comprise: purified recombinant kinase enzyme, test compound, ATP (at apparent Km for each kinase), and fluorescently labeled peptide substrate. The reaction buffer composed of: 100 mM HEPES, pH7.5; 5 mM MgCl2; 1 mM DTT; 0.1% bovine serum albumin; 0.01% Triton X-100, and 1% DMSO (from compound). The reactions were incubated at room temperature for indicated time and quenched by addition of 45 μL of termination buffer (100 mM HEPES pH7.5; 0.01% Triton X-100; 30 mM EDTA). Substrate and product peptides in each sample were electrophoretically separated and detected using 12 channel LabChip3000® microfluidic capillary electrophoresis instrument (Caliper Life Sciences). The change in the relative fluorescence intensities of substrate and product peaks (reflecting enzyme activity) was measured. Capillary electrophoregramms were analyzed using HTS Well Analyzer software (Caliper Life Sciences). The kinase activity in each sample was determined as “product to sum” ratio (PSR):P/(S+P), where P is the peak height of the product peptide and S is the peak height of the substrate peptide. Negative control samples (0%-inhibition in the absence of inhibitor) and positive control samples (100%-inhibition, in the presence of 20 mM EDTA) were assembled in replicates of four and were used to calculate %-inhibition values for each compound at each concentration. Percent inhibition (Pinh) was determined using following equation: Pinh=(PSR0%−PSRinh)/(PSR0%−PSR100%)*100, where PSRinh is the product-sum ratio in the presence of inhibitor, PSR0% is the average product-sum ration in the absence of inhibitor and PSR100% is the average product-sum ratio in 100%-inhibition control samples. The IC50 values of reference inhibitors were determined by fitting the inhibition curves by a 4 parameter sigmoid dose-response model using XLfit 4 software (IDBS).

inhibition at 10 µM | SMILES
50 to 70% | O=C1NC2(CCCC2)Cn2c1cc1cnc(N[C@H]3CC[C@H](O)CC3)nc12 [Compd 6]
< 50% | O=C1NCCn2c1cc1cnc(N[C@H]3CC[C@H](O)CC3)nc12 [Compd 3]
50 to 70% | CC1(C)CNC(=O)c2cc3cnc(N[C@H]4CC[C@H](O)CC4)nc3n21 [Compd 4]
< 50% | Cc1ccccc1-c1c2n(c3nc(N[C@H]4CC[C@H](O)CC4)ncc13)CCNC2=O [Compd 2]

Each compound was assayed against T2, DYRK3 (Homo sapiens, UniProt O43781) (assay: Kinase electrophoretic mobility shift assay, DYRK3). Conditions: compounds tested at 10 μM, average of n = 2, ATP at apparent Km; read-out: DYRK3 activity (percent inhibition).
T2 sequence (O43781 1-588): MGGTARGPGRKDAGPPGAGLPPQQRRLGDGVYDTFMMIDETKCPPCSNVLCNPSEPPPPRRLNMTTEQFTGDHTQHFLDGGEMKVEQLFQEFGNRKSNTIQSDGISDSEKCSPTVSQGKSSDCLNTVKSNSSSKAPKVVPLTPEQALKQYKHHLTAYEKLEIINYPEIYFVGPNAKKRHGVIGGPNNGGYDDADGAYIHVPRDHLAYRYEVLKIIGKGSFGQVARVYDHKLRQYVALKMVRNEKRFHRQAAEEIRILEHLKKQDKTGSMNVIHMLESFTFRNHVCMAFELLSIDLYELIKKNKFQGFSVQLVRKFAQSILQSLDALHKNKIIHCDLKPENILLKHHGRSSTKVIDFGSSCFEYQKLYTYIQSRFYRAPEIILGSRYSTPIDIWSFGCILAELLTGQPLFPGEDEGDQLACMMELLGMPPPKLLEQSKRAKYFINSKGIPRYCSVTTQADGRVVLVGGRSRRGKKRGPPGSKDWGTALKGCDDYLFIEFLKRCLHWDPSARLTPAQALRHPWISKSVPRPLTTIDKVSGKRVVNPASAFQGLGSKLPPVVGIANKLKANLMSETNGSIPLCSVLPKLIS
Assay type: biochemical
Experimental: as §1

inhibition at 10 µM | SMILES
71 to 90% | O=C1NC2(CCCC2)Cn2c1cc1cnc(N[C@H]3CC[C@H](O)CC3)nc12 [Compd 6]
71 to 90% | O=C1NCCn2c1cc1cnc(N[C@H]3CC[C@H](O)CC3)nc12 [Compd 3]
71 to 90% | CC1(C)CNC(=O)c2cc3cnc(N[C@H]4CC[C@H](O)CC4)nc3n21 [Compd 4]
< 50% | Cc1ccccc1-c1c2n(c3nc(N[C@H]4CC[C@H](O)CC4)ncc13)CCNC2=O [Compd 2]

Each compound was assayed against FMS (Homo sapiens, UniProt P07333) (assay: Kinase electrophoretic mobility shift assay, FMS). Conditions: compounds tested at 10 μM, average of n = 2, ATP at apparent Km; read-out: FMS activity (percent inhibition).
Chain of FMS (P07333 20-972, species assumed): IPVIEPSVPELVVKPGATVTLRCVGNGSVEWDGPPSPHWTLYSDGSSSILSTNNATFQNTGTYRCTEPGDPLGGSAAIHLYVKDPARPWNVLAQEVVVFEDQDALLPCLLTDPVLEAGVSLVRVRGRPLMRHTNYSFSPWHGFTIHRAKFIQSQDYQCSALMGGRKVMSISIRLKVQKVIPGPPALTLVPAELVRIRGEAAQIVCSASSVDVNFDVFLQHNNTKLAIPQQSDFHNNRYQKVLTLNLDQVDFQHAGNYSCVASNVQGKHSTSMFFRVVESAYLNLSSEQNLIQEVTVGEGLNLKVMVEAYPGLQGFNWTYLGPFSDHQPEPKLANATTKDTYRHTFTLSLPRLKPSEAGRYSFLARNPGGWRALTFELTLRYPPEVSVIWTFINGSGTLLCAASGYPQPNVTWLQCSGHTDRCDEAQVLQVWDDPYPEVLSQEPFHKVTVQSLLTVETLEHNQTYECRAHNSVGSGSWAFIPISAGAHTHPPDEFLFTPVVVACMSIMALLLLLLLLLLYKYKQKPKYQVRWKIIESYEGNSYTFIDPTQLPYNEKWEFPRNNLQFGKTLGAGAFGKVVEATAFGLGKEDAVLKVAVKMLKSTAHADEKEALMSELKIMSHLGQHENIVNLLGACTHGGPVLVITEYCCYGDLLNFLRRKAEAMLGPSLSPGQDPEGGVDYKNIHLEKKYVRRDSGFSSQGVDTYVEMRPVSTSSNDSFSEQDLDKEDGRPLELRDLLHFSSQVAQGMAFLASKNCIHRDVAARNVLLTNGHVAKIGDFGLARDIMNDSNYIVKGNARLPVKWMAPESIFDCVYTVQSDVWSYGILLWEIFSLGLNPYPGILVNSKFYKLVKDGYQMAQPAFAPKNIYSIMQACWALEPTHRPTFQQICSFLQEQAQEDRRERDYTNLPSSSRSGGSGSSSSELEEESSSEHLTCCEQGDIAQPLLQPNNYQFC
Assay type: biochemical
Experimental: as §1

inhibition at 10 µM | SMILES
50 to 70% | O=C1NC2(CCCC2)Cn2c1cc1cnc(N[C@H]3CC[C@H](O)CC3)nc12 [Compd 6]
< 50% | O=C1NCCn2c1cc1cnc(N[C@H]3CC[C@H](O)CC3)nc12 [Compd 3]
> 90% | CC1(C)CNC(=O)c2cc3cnc(N[C@H]4CC[C@H](O)CC4)nc3n21 [Compd 4]
< 50% | Cc1ccccc1-c1c2n(c3nc(N[C@H]4CC[C@H](O)CC4)ncc13)CCNC2=O [Compd 2]

Each compound was assayed against GSK-3 beta (Homo sapiens, UniProt P49841) (assay: Kinase electrophoretic mobility shift assay, GSK-3 beta). Conditions: compounds tested at 10 μM, average of n = 2, ATP at apparent Km; read-out: GSK-3 beta activity (percent inhibition).
Chain of GSK-3 beta (P49841 whole entry, species assumed): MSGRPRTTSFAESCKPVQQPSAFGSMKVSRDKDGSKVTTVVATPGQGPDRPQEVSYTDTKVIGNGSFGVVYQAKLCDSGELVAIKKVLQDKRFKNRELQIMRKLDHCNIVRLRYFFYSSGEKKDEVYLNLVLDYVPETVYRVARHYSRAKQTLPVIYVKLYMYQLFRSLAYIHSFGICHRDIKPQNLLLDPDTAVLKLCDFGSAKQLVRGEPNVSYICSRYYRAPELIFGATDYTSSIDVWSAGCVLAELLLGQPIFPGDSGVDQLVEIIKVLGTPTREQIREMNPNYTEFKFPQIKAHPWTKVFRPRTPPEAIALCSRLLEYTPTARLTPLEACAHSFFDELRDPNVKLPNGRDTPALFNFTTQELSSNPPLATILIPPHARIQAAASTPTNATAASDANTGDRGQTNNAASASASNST
Assay type: biochemical
Experimental: as §1

inhibition at 10 µM | SMILES
> 90% | O=C1NC2(CCCC2)Cn2c1cc1cnc(N[C@H]3CC[C@H](O)CC3)nc12 [Compd 6]
71 to 90% | O=C1NCCn2c1cc1cnc(N[C@H]3CC[C@H](O)CC3)nc12 [Compd 3]
> 90% | CC1(C)CNC(=O)c2cc3cnc(N[C@H]4CC[C@H](O)CC4)nc3n21 [Compd 4]
< 50% | Cc1ccccc1-c1c2n(c3nc(N[C@H]4CC[C@H](O)CC4)ncc13)CCNC2=O [Compd 2]

What follows are compounds tested against T3, HIPK4 (Homo sapiens, UniProt Q8NE63) (assay: Kinase electrophoretic mobility shift assay, HIPK4). Conditions: compounds tested at 10 μM, average of n = 2, ATP at apparent Km; read-out: HIPK4 activity (percent inhibition).
T3 sequence (Q8NE63 1-616): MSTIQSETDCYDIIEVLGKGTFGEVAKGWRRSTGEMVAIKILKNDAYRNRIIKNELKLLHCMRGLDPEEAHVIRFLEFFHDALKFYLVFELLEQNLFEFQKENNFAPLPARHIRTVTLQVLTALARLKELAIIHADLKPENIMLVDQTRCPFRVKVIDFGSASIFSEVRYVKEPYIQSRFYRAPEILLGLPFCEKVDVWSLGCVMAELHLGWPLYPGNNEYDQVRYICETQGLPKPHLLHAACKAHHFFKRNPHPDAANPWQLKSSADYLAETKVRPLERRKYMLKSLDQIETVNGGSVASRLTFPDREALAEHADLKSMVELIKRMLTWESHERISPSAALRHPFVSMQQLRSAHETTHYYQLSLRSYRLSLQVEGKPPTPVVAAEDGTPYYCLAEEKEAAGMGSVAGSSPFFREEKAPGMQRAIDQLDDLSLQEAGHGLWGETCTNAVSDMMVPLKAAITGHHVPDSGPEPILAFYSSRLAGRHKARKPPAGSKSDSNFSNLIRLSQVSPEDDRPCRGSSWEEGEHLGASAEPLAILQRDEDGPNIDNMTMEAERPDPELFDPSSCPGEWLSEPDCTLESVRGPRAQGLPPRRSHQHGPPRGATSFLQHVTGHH
Assay type: biochemical
Experimental: as §1

inhibition at 10 µM | SMILES
> 90% | O=C1NC2(CCCC2)Cn2c1cc1cnc(N[C@H]3CC[C@H](O)CC3)nc12 [Compd 6]
71 to 90% | O=C1NCCn2c1cc1cnc(N[C@H]3CC[C@H](O)CC3)nc12 [Compd 3]
> 90% | CC1(C)CNC(=O)c2cc3cnc(N[C@H]4CC[C@H](O)CC4)nc3n21 [Compd 4]
< 50% | Cc1ccccc1-c1c2n(c3nc(N[C@H]4CC[C@H](O)CC4)ncc13)CCNC2=O [Compd 2]

Each compound was assayed against JNK2 (Homo sapiens, UniProt P45984) (assay: Kinase electrophoretic mobility shift assay, JNK2). Conditions: compounds tested at 10 μM, average of n = 2, ATP at apparent Km; read-out: JNK2 activity (percent inhibition).
Chain of JNK2 (P45984 whole entry, species assumed): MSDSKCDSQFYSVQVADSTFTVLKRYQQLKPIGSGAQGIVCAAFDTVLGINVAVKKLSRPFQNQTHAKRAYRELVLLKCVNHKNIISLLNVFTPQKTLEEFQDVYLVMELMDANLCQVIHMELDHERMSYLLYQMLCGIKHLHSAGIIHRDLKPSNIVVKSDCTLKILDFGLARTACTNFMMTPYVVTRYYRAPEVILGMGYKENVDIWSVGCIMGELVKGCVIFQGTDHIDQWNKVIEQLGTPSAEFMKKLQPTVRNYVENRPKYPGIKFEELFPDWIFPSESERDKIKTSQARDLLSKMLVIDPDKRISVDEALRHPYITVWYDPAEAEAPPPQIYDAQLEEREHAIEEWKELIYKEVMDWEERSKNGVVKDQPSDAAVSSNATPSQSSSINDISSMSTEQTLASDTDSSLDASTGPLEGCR
Assay type: biochemical
Experimental: as §1

inhibition at 10 µM | SMILES
> 90% | O=C1NC2(CCCC2)Cn2c1cc1cnc(N[C@H]3CC[C@H](O)CC3)nc12 [Compd 6]
> 90% | O=C1NCCn2c1cc1cnc(N[C@H]3CC[C@H](O)CC3)nc12 [Compd 3]
> 90% | CC1(C)CNC(=O)c2cc3cnc(N[C@H]4CC[C@H](O)CC4)nc3n21 [Compd 4]
71 to 90% | Cc1ccccc1-c1c2n(c3nc(N[C@H]4CC[C@H](O)CC4)ncc13)CCNC2=O [Compd 2]

What follows are compounds tested against MAPK3 (Homo sapiens, UniProt P27361) (assay: Kinase electrophoretic mobility shift assay, MAPK3). Conditions: compounds tested at 10 μM, average of n = 2, ATP at apparent Km; read-out: MAPK3 activity (percent inhibition).
Chain of MAPK3 (P27361 whole entry): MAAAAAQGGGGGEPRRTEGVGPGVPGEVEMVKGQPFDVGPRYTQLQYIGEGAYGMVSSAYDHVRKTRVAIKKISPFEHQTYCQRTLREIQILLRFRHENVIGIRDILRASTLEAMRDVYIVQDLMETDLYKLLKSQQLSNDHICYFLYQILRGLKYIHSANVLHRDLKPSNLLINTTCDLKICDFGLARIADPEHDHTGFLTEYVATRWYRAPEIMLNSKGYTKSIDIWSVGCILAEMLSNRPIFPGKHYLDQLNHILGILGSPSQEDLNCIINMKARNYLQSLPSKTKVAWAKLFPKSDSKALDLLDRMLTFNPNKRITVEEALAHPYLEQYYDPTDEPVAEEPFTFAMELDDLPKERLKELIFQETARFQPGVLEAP
Assay type: biochemical
Experimental: as §1

inhibition at 10 µM | SMILES
> 90% | O=C1NC2(CCCC2)Cn2c1cc1cnc(N[C@H]3CC[C@H](O)CC3)nc12 [Compd 6]
71 to 90% | O=C1NCCn2c1cc1cnc(N[C@H]3CC[C@H](O)CC3)nc12 [Compd 3]
71 to 90% | CC1(C)CNC(=O)c2cc3cnc(N[C@H]4CC[C@H](O)CC4)nc3n21 [Compd 4]
50 to 70% | Cc1ccccc1-c1c2n(c3nc(N[C@H]4CC[C@H](O)CC4)ncc13)CCNC2=O [Compd 2]

The compounds below were run against MNK2 (Homo sapiens, UniProt Q9HBH9) (assay: Kinase electrophoretic mobility shift assay, MNK2). Conditions: compounds tested at 10 μM, average of n = 2, ATP at apparent Km; read-out: MNK2 activity (percent inhibition).
Chain of MNK2 (Q9HBH9 whole entry, species assumed): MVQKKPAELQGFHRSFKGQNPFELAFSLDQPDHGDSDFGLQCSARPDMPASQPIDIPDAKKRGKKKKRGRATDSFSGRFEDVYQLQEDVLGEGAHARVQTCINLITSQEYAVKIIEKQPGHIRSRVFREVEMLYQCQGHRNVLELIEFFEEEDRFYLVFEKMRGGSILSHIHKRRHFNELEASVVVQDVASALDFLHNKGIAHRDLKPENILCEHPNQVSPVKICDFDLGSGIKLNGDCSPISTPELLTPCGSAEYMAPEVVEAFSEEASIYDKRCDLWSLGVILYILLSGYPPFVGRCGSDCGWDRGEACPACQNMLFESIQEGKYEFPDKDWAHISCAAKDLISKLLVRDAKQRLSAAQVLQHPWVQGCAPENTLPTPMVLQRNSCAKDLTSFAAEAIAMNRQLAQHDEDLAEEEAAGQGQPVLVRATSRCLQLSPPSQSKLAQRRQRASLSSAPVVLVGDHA
Assay type: biochemical
Experimental: as §1

inhibition at 10 µM | SMILES
50 to 70% | O=C1NC2(CCCC2)Cn2c1cc1cnc(N[C@H]3CC[C@H](O)CC3)nc12 [Compd 6]
< 50% | O=C1NCCn2c1cc1cnc(N[C@H]3CC[C@H](O)CC3)nc12 [Compd 3]
71 to 90% | CC1(C)CNC(=O)c2cc3cnc(N[C@H]4CC[C@H](O)CC4)nc3n21 [Compd 4]
< 50% | Cc1ccccc1-c1c2n(c3nc(N[C@H]4CC[C@H](O)CC4)ncc13)CCNC2=O [Compd 2]

What follows are compounds tested against P38 beta (Homo sapiens, UniProt Q15759) (assay: Kinase electrophoretic mobility shift assay, P38 beta). Conditions: compounds tested at 10 μM, average of n = 2, ATP at apparent Km; read-out: P38 beta activity (percent inhibition).
Chain of P38 beta (Q15759 whole entry): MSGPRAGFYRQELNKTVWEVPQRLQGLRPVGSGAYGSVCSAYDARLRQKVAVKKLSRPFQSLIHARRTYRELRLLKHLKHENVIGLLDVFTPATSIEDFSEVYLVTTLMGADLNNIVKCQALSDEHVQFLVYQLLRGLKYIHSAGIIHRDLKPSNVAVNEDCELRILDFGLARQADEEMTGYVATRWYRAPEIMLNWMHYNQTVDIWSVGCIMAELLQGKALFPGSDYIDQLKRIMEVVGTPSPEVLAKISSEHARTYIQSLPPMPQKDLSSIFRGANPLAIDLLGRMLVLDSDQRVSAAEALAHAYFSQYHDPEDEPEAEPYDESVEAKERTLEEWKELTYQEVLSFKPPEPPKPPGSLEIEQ
Assay type: biochemical
Experimental: as §1

inhibition at 10 µM | SMILES
50 to 70% | O=C1NC2(CCCC2)Cn2c1cc1cnc(N[C@H]3CC[C@H](O)CC3)nc12 [Compd 6]
< 50% | O=C1NCCn2c1cc1cnc(N[C@H]3CC[C@H](O)CC3)nc12 [Compd 3]
50 to 70% | CC1(C)CNC(=O)c2cc3cnc(N[C@H]4CC[C@H](O)CC4)nc3n21 [Compd 4]
< 50% | Cc1ccccc1-c1c2n(c3nc(N[C@H]4CC[C@H](O)CC4)ncc13)CCNC2=O [Compd 2]
